Columns and labels:
MGLL = test: Expression of MGLL in rat sebaceous gland (epidermal split) after topical PPARgamma agonist treatment, real-time PCR; assay type: in vivo; conditions: female FUZZY rats, topical 1% in acetone, standardized to 18S, versus carrier group
Source text: • Strain: Ico:Hsd:FUZZY-fz • Gender: female • Age: 10 weeks Number per batch: 40 (8 animals per group) Treatment: Route of administration: topical • Compound/batch: PPARgamma agonists: • A: 5-{4-[2-(methylpyridin-2-ylamino)ethoxy]-benzyl}thiazolidine-2,4-dione • B: (2-methoxyethoxymethoxy)naphthalene-2-carboxylic acid [4′-(2,4-dioxothiazolidin-5-ylmethyl)biphenyl-3-ylmethyl]methylamide or rosiglitazone • C: (S)-2-ethoxy-3-{4-[6-(3-heptyl-1-methyl-ureido)pyridin-2-yl)phenyl}propionic acid • Doses: 1% • Carrier: acetone (001) • Duration 96 hours Method of evaluation: The animals are weighed at the beginning and at the end of the study. Skin biopsies are taken (6 samples of skin excised per rat) in order to analyse the expression of the genes (RNA extraction, reverse transcriptase and real-time PCR). The samples are stored overnight at 4° C. before incubation in 1M sodium bromide (NaBr) for 2 hours at 37° C. After incubation, the samples are separated into epidermis or dermis. The epidermal samples are stored at 20° C. […] PCRs are carried out, beginning with the cDNAs originating from the epidermal splits containing sebaceous glands from control rats or rats treated with a PPARγ agonist: the mRNA is extracted using a column and quantified. The quality of the mRNAs is measured and is represented by the 18S/28S ratio. The results are standardized with respect to 18S, expressed as relative induction versus untreated animals (carrier group). The statistical analysis is obtained using internal software based on a modified Monte Carlo statistical analysis.

[1] = tested on: Monoglyceride lipase (MGLL); test: Expression of MGLL in Fuzzy rat epidermal split after topical treatment (Affymetrix transcriptome analysis); assay type: in vivo; conditions: female FUZZY rats, topical 1% once a day for 8 days, Affymetrix 1388644_at, control condition 214
Experimental: The studies are carried out in female Fuzzy rats (Hsd: Fuzzy-fz) ten weeks old at the beginning of the study. The animals are treated at a dose of 1% (PPARg agonist rosiglitazone in solution in acetone) once a day for 8 days. Two hours after the final treatment, the animals are sacrificed by euthanasia and the skin on the back is removed. After incubation in dispase, the epidermis carrying the sebaceous glands is detached from the dermis (epidermal split). After grinding of the samples, the mRNA is prepared using Qiagen columns, in accordance with the supplier's instructions. The material thus prepared is subjected to large-scale transcriptome analysis on an Affymetrix platform. The data are subsequently standardized and, after statistical analysis, the results produced are expressed in arbitrary expression units (see below) accompanied, for each piece of data, by a statistical value for presence of the transcript (presence=1; absence=0).

CN(CCOc1ccc(CC2SC(=O)NC2=O)cc1)c1ccccn1 (stereo not shown) [A, 5-{4-[2-(methylpyridin-2-ylamino)ethoxy]-benzyl}thiazolidine-2,4-dione]
MGLL relative induction, 0 hours (MGLL): 1 | MGLL relative induction, 8 hours (MGLL): 2.37 | MGLL relative induction, 24 hours (MGLL): 5.06 | MGLL relative induction, 48 hours (MGLL): 3.13 | MGLL relative induction, 96 hours (MGLL): 5.76

CCCCCCCNC(=O)N(C)c1cccc(-c2ccc(C[C@H](OCC)C(=O)O)cc2)n1 [C, (S)-2-ethoxy-3-{4-[6-(3-heptyl-1-methyl-ureido)pyridin-2-yl)phenyl}propionic acid]
MGLL relative induction, 0 hours (MGLL): 1 | MGLL relative induction, 8 hours (MGLL): 5.01 | MGLL relative induction, 24 hours (MGLL): 3.90 | MGLL relative induction, 48 hours (MGLL): 3.88 | MGLL relative induction, 96 hours (MGLL): 3.86

CN(CCOc1ccc(CC2SC(=O)NC2=O)cc1)c1ccccn1 (stereo not shown) [rosiglitazone]
Expression after treatment with 1% rosiglitazone [1]: 576 arbitrary expression units

(2-methoxyethoxymethoxy)naphthalene-2-carboxylic acid [4′-(2,4-dioxothiazolidin-5-ylmethyl)biphenyl-3-ylmethyl]methylamide
MGLL relative induction, 0 hours (MGLL): 1 | MGLL relative induction, 8 hours (MGLL): 1.17 | MGLL relative induction, 24 hours (MGLL): 2.21 | MGLL relative induction, 48 hours (MGLL): 3.12 | MGLL relative induction, 96 hours (MGLL): 1.61
